Test results: US20260125375A1 (Pfizer Inc., priority 2022, published 2026)

Tests used:
WT CBL-B (36-427) = target: T1, WT CBL-B (36-427) (Homo sapiens, UniProt Q13191); assay: Surface Plasmon Resonance (SPR) assay, binding affinity and kinetics, CBL-B; conditions: SPR at 10° C., biotinylated WT CBL-B (36-427) on streptavidin chip; geometric mean; read-out: CBL-B SPR Kd (nM) GMean
T1 construct: N-terminal biotinylated WT CBL-B (36-427) and C-CBL (46-435) were captured on a streptavidin (SA) coated sensor chip
T1 sequence (Q13191 36-427): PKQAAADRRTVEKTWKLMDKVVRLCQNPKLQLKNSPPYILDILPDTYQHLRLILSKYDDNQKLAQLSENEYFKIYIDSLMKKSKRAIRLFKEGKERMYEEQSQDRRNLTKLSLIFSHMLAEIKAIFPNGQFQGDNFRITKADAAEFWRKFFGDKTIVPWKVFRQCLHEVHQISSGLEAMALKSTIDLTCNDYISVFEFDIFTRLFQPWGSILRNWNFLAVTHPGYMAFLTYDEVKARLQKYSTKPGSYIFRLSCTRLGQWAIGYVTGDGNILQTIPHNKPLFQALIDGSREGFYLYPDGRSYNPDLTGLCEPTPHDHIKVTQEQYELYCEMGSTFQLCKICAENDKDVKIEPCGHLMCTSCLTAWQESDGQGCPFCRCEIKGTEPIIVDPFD
Outline: (§1)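 Biotinylated WT CBL-B (36-427) or C-CBL (46-435) captured on streptavidin chip (~5000–6000 RU); binding at 10° C in HEPES buffer pH 7.2 with 2% DMSO. Multi-cycle: 2-fold, 10-point series from 10 or 100 μM, 90 s association. Single-cycle: 3-fold, 6-point, 0.001–1 μM, 120 s association, >5400 s dissociation.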

C-CBL (46-435) = target: T2, C-CBL (46-435) (Homo sapiens, UniProt P22681); assay: Surface Plasmon Resonance (SPR) assay, binding affinity and kinetics, C-CBL; conditions: SPR at 10° C., biotinylated C-CBL (46-435) on streptavidin chip; geometric mean; read-out: C-CBL SPR Kd (nM) GMean
T2 construct: N-terminal biotinylated WT CBL-B (36-427) and C-CBL (46-435) were captured on a streptavidin (SA) coated sensor chip
T2 sequence (P22681 46-435): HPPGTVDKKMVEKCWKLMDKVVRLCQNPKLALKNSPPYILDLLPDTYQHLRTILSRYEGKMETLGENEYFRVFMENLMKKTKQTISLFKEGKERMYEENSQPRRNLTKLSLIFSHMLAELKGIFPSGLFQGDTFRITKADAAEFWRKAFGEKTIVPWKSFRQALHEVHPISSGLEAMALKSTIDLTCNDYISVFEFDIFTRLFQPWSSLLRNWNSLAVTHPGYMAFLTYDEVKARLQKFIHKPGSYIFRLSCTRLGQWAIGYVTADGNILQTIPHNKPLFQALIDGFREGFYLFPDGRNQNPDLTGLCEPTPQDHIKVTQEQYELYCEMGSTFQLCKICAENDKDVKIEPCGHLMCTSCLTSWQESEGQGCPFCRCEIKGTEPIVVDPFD
Outline: as §1

Row | Structure (SMILES) | Kd (WT CBL-B (36-427)) [nM] | Kd (C-CBL (46-435)) [nM]
1 | C[C@H](N[C@@H]1CC[C@@H]1O)c1nc(C(F)(F)F)cc2c(-c3cccc([C@H](c4nncn4C)C4CCC4)c3)n[nH]c12 (single isomer, unassigned) [Example D28] | 0.4 | 2.2
2 | C[C@H](N[C@H]1CCC(F)(F)C1)c1nc(C(F)(F)F)cc2c(-c3cccc(C4(Cc5nncn5C)COC4)c3)n[nH]c12 (single isomer, unassigned) [Example C12] | 0.8 | 1.8
3 | C[C@@H](N[C@H]1CCC(F)(F)C1)c1nc(C(F)(F)F)cc2c(-c3cccc(C4(Cc5nncn5C)COC4)c3)n[nH]c12 (single isomer, unassigned) [Example C13] | 2.8 | 11.9
4 | C[C@@H](NC1CC(F)(F)C1)c1nc(C(F)(F)F)cc2c(-c3cccc([C@H](c4nncn4C)C4CCC4)c3)n[nH]c12 (single isomer, unassigned) [Example D91] | 6.3 | 35.4
5 | C[C@@H]1CCCN([C@H](C)c2nc(C(F)(F)F)cc3c(-c4cccc(C5(Cc6nncn6C)COC5)c4)n[nH]c23)C1 (single isomer, unassigned) [Example D14] | 11.1 | 140
6 | Cn1cnnc1[C@@H](c1cccc(-c2n[nH]c3cnc(C(F)(F)F)cc23)c1)C1CCC1 [Example A1, 3-{3-[(R)-cyclobutyl(4-methyl-4H-1,2,4-triazol-3-yl)methyl]phenyl}-5-(trifluoromethyl)-1H-pyrazolo[3,4-c]pyridine] | 34.6 | 931
7 | CC(c1nc(C(F)(F)F)cc2c(-c3cccc(C4(Cc5nncn5C)COC4)c3)n[nH]c12)N1CCOCC1 (single isomer, unassigned) [Example C24, 3-(3-{3-[(4-methyl-4H-1,2,4-triazol-3-yl)methyl]oxetan-3-yl}phenyl)-7-[(1ξ)-1-(morpholin-4-yl)ethyl]-5-(trifluoromethyl)-1H-pyrazolo[3,4-c]pyridine] | 16.9 | 146
8 | CC(NC1CCCC1)c1nc(C(F)(F)F)cc2c(-c3cccc([C@H](c4nncn4C)C4CCC4)c3)n[nH]c12 (stereo partly drawn) [Example C14, N-{(1ξ)-1-[3-{3-[(R)-cyclobutyl(4-methyl-4H-1,2,4-triazol-3-yl)methyl]phenyl}-5-(trifluoromethyl)-1H-pyrazolo[3,4-c]cyclopen-7-yl]ethyl}cyclopentanamine] | 1.4 | 4.1
9 | C[C@H](O)CN[C@@H](C)c1nc(C(F)(F)F)cc2c(-c3cccc([C@H](c4nncn4C)C4CCC4)c3)n[nH]c12 (single isomer, unassigned) [Example D19] | 1.6 | 17.2
10 | C[C@@H](NC1CCCC1)c1nc(C(F)(F)F)cc2c(-c3cccc(C4(Cc5nncn5C)COC4)c3)n[nH]c12 (single isomer, unassigned) [Example C15] | 5.6 | 33.9
11 | CCNC(C)c1nc(C(F)(F)F)cc2c(-c3cccc([C@H](c4nncn4C)C4CCC4)c3)n[nH]c12 (single isomer, unassigned) [Example C89] | 4.1 | 125
12 | C[C@H](N[C@H]1CCOC1)c1nc(C(F)(F)F)cc2c(-c3cccc([C@H](c4nncn4C)C4CCC4)c3)n[nH]c12 (single isomer, unassigned) [Example C2] | 2.5 | 38.8
13 | C[C@H](N)c1nc(C(F)(F)F)cc2c(-c3cccc([C@H](c4nncn4C)C4CCC4)c3)n[nH]c12 [Example K12, (1S)-1-[3-{3-[(R)-cyclobutyl(4-methyl-4H-1,2,4-triazol-3-yl)methyl]phenyl}-5-(trifluoromethyl)-1H-pyrazolo[3,4-c]pyridin-7-yl]ethan-1-amine] | 4.2 | 209
14 | Cn1cnnc1[C@@H](c1cccc(-c2n[nH]c3c(CN[C@H]4CCC[C@@H]4O)nc(C(F)(F)F)cc23)c1)C1CCC1 [Example C4, (1S,2S)-2-({[3-{3-[(R)-cyclobutyl(4-methyl-4H-1,2,4-triazol-3-yl)methyl]phenyl}-5-(trifluoromethyl)-1H-pyrazolo[3,4-c]pyridin-7-yl]methyl}amino)cyclopentan-1-ol] | 2.1 | 49.9
15 | Cn1cnnc1[C@@H](c1cccc(-c2n[nH]c3c(CN[C@@H]4CCC[C@@H]4O)nc(C(F)(F)F)cc23)c1)C1CCC1 [Example C1, (1S,2R)-2-({[3-{3-[(R)-cyclobutyl(4-methyl-4H-1,2,4-triazol-3-yl)methyl]phenyl}-5-(trifluoromethyl)-1H-pyrazolo[3,4-c]pyridin-7-yl]methyl}amino)cyclopentan-1-ol] | 1.2 | 7.6
16 | Cn1cnnc1CC1(c2cccc(-c3n[nH]c4c(CN[C@H]5CCC(F)(F)C5)nc(C(F)(F)F)cc34)c2)COC1 [Example C38, (1S)-3,3-difluoro-N-{[3-(3-{3-[(4-methyl-4H-1,2,4-triazol-3-yl)methyl]oxetan-3-yl}phenyl)-5-(trifluoromethyl)-1H-pyrazolo[3,4-c]pyridin-7-yl]methyl}cyclopentan-1-amine] | 7.5 | 70.5
17 | CC(c1nc(C(F)(F)F)cc2c(-c3cccc(C4(Cc5nncn5C)COC4)c3)n[nH]c12)N1CCCCC1 (single isomer, unassigned) [Example C21, 3-(3-{3-[(4-methyl-4H-1,2,4-triazol-3-yl)methyl]oxetan-3-yl}phenyl)-7-[(1ξ)-1-(piperidin-1-yl)ethyl]-5-(trifluoromethyl)-1H-pyrazolo[3,4-c]pyridine] | 13.7 | 108
18 | CC(NC1CNC1)c1nc(C(F)(F)F)cc2c(-c3cccc(C4(Cc5nncn5C)COC4)c3)n[nH]c12 (single isomer, unassigned) [Example C27, N-{(1ξ)-1-[3-(3-{3-[(4-methyl-4H-1,2,4-triazol-3-yl)methyl]oxetan-3-yl}phenyl)-5-(trifluoromethyl)-1H-pyrazolo[3,4-c]pyridin-7-yl]ethyl}azetidin-3-amine] | 8.7 | 71
19 | Cn1cnnc1CC1(c2cccc(-c3n[nH]c4ncc(C(F)(F)F)cc34)c2)COC1 [Example B3, 3-(3-{3-[(4-methyl-4H-1,2,4-triazol-3-yl)methyl]oxetan-3-yl}phenyl)-5-(trifluoromethyl)-1H-pyrazolo[3,4-b]pyridine] | 67.9 | 861
20 | C[C@@H](N[C@H]1CC[C@@H]1O)c1nc(C(F)(F)F)cc2c(-c3cccc([C@H](c4nncn4C)C4CCC4)c3)n[nH]c12 (single isomer, unassigned) [Example D22] | 1.5 | 9.8
21 | CC(C)NC(C)c1nc(C(F)(F)F)cc2c(-c3cccc([C@H](c4nncn4C)C4CCC4)c3)n[nH]c12 (single isomer, unassigned) [Example C35] | 2.8 | 54
22 | C[C@H](N[C@@H]1CCOC1)c1nc(C(F)(F)F)cc2c(-c3cccc([C@H](c4nncn4C)C4CCC4)c3)n[nH]c12 (single isomer, unassigned) [Example D2] | 3.8 | 108
23 | C[C@H](N[C@H]1C[C@@H](O)C1)c1nc(C(F)(F)F)cc2c(-c3cccc([C@H](c4nncn4C)C4CCC4)c3)n[nH]c12 (single isomer, unassigned) [Example C36] | 2 | 17.9
24 | C[C@H](c1nc(C(F)(F)F)cc2c(-c3cccc(C4(Cc5nncn5C)COC4)c3)n[nH]c12)N1C[C@H](F)[C@@H](F)C1 (single isomer, unassigned) [Example D8] | 15.8 | 177
25 | C[C@@H](NC1CCC1)c1nc(C(F)(F)F)cc2c(-c3cccc(C4(Cc5nncn5C)COC4)c3)n[nH]c12 [Example C16] | 2 | 83.4
26 | C[C@@H](c1nc(C(F)(F)F)cc2c(-c3cccc(C4(Cc5nncn5C)COC4)c3)n[nH]c12)N1CCC(F)(F)C1 (single isomer, unassigned) [Example D5] | 21.9 | 209
27 | CC(c1nc(C(F)(F)F)cc2c(-c3cccc(C4(Cc5nncn5C)COC4)c3)n[nH]c12)N1CCCCC1 (single isomer, unassigned) [Example C22, 3-(3-{3-[(4-methyl-4H-1,2,4-triazol-3-yl)methyl]oxetan-3-yl}phenyl)-7-[(1ξ)-1-(piperidin-1-yl)ethyl]-5-(trifluoromethyl)-1H-pyrazolo[3,4-c]pyridine] | 8.2 | 116
28 | C[C@@H]1CCCN([C@@H](C)c2nc(C(F)(F)F)cc3c(-c4cccc(C5(Cc6nncn6C)COC5)c4)n[nH]c23)C1 (single isomer, unassigned) [Example D13] | 3.5 | 51.2
29 | C[C@@H](N[C@H]1C[C@@H](O)C1)c1nc(C(F)(F)F)cc2c(-c3cccc([C@H](c4nncn4C)C4CCC4)c3)n[nH]c12 (single isomer, unassigned) [Example C37] | 3.3 | 75.5
30 | C[C@H](N[C@@H]1CCC[C@@H]1O)c1nc(C(F)(F)F)cc2c(-c3cccc([C@H](c4nncn4C)C4CCC4)c3)n[nH]c12 (single isomer, unassigned) [Example D15] | 2.5 | 6.2
